{"source": "patent US9867391B2", "about": "“Accelerating muscle recovery after immobilization-induced muscle atrophy” (NESTEC S.A., priority 2011, dated 2018)", "origin": "cited, not measured here", "system": "muscle protein synthesis", "details": "Kastanos et al. 2006"}
{"smiles": "CC(C)C[C@H](N)C(=O)O", "note": "[leucine]", "values": [{"measurement": "muscle protein synthesis in young subjects", "setting": "leucine added to the diet, young subjects", "result": "did not increased muscle protein synthesis"}, {"measurement": "muscle protein synthesis in elderly", "setting": "same leucine supplementation, elderly", "result": "efficient"}]}
